From US20240148740A1, “COMBINATION OF AN AHR INHIBITOR WITH A PDX INHIBITOR OR DOXORUBICINE” (Ikena Oncology, Inc., priority 2020, published 2024) come the findings set out here.

Entries after “also recorded” stand apart in the source; their conditions may differ.

A short description of data set [1]: Levels of doxorubicin in plasma (UPLC). In kind it is in vivo, mouse. The conditions noted are these: day 28 after cell inoculation; FIG. 7. The protocol:
To analyze the levels of doxorubicin in plasma, blood was collected using retro-orbital vein bleeding. Plasma was generated after centrifuging blood in dipotassium EDTA tubes for 10 min at 4° C. Plasma was transferred in new tubes and stored at −80° C.
Doxorubicin levels in plasma were analyzed by UPLC.
To determine whether Compound A treatment had any effects on doxorubicin metabolism, the levels of doxorubicin in plasma were analyzed on day 28 after cell inoculation.

Data set [2] in a line: Phase 1 study, safety of single agent dose escalation. In kind it is in vivo. The note with it: 200 mg, 400 mg, 800 mg, and 1200 mg QD, monotherapy, human patients. The text has this: This is a first-in-human (FIH), open-label, multicenter, dose-escalation and expansion study to evaluate the safety, tolerability, PK, pharmacodynamics, and preliminary antitumor activity of Compound A administered orally (PO). There will be two arms: a single agent Compound A arm and a combination arm of Compound A with nivolumab in patients with advanced solid tumors and urothelial carcinoma. The Safety Review Committee (SRC) comprised of the enrolling study Investigators and the Sponsor will use the mTPI-2 design (Guo, 2017) and assess all safety data available to guide dose escalation and de-escalation decisions and subject enrollment for both arms. To assess evidence of preliminary antitumor activity in patients with urothelial carcinoma, a Simon 2-stage design (Simon, 1989) is used for both arms.
A baseline Screening period is followed by a by a Single-dose Run-in period (up to 7 days) to assess the PK of Compound A without food. The Single Agent treatment arm comprises daily oral administration of Compound A in the fed state. […]
Toxicity is evaluated according to National Cancer Institute Common Terminology Criteria for Adverse Events (AEs) (NCI-CTCAE) v5.0. […]

A short description of data set [3]: Phase 1 study, interim cohort pharmacokinetics. In kind it is in vivo, human. How it is done:
Serial blood samples are obtained to characterize the plasma PK of Compound A and its major active metabolites. The initial sampling strategy is based on the predicted human PK of this compound. If in the course of evaluating the PK, it is determined that an alternative sampling scheme would be more informative, then that alternative sampling scheme can be implemented if the total amount of blood and blood draws obtained for PK is not increased. Moreover, the total number of samples can be decreased at any time if the initial sampling scheme is considered unnecessarily intensive.

The target in another data set is T1, AHR (Homo sapiens, UniProt P35869).
T1 sequence (P35869 11-848): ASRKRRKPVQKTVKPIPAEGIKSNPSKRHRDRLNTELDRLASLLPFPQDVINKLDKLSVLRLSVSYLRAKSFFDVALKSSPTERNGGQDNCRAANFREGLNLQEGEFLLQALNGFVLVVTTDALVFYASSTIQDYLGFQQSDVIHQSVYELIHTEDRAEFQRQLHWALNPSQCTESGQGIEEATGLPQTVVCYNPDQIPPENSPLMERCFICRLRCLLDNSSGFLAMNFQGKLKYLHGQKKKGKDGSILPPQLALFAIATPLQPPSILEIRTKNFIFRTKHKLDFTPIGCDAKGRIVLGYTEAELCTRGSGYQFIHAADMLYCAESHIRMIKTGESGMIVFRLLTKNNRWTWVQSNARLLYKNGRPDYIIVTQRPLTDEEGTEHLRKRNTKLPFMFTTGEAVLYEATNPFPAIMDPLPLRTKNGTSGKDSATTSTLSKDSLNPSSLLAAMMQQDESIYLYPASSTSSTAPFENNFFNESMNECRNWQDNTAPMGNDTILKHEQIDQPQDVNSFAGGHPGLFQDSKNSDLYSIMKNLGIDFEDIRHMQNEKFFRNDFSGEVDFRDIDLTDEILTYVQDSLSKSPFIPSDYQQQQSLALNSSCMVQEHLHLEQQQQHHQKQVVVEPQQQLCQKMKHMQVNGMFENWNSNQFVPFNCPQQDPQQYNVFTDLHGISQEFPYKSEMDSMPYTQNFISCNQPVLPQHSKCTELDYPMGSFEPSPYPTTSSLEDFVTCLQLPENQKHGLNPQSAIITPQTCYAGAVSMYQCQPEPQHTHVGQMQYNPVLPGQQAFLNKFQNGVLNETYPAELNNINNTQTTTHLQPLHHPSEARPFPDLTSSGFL
Nature of the data set: Phase 1 study, pharmacodynamic whole blood assay of AHR target genes. In kind it is in vivo. The note with it: all subjects in the 200 mg, 400 mg, and 800 mg cohorts. The text has this: Because the starting dose and any higher dose of Compound A is expected to be near or at the pharmacologically active range, each subject is required to have blood drawn and tumor biopsies for secondary and exploratory pharmacodynamic endpoints. The blood and tumor tissue samples are used to confirm AHR target engagement. Individual subjects can be exempted from the tumor biopsy requirement upon discussion and prior agreement by the Sponsor. The initial sampling strategy is based on the predicted human pharmacodynamics of Compound A. If in the course of evaluating the pharmacodynamics, it is determined that an alternative sampling scheme would be more informative, then that alternative sampling scheme can be implemented if the total amount of blood, blood draws, and tumor biopsies obtained for pharmacodynamics is not increased. Moreover, the total number of samples can be decreased at any time if the initial sampling scheme is considered unnecessarily intensive.

The nature of data set [4]: Nonclinical safety: single-dose and repeated-dose toxicological studies. The data set is classed as in vivo, rodent and non-rodent species. The note with it: species not specified.

On to `CC(C)c1cnn2c(N[C@@H]3CCc4[nH]c5ccccc5c4C3)nc(-c3cncc(F)c3)nc12` [Compound A, (R)—N-(2-(5-fluoropyridin-3-yl)-8-isopropylpyrazolo[1,5-a][1,3,5]triazin-4-yl)-2,3,4,9-tetrahydro-1H-carbazol-3-amine], for which the “effect of Compound A treatment on doxorubicin drug levels in plasma / metabolism of Doxil” value in data set [1] is “does not affect; also recorded: did not have any effect”. In addition, the “serious adverse events (SAEs)” value in data set [2] is recorded as “no serious adverse events; also recorded: without any drug-related serious adverse events”. In addition, in data set [3] (Cycle 2 Day 1 (C2D1)), the “dose proportionality of PK” value is “greater than dose proportional”. Besides, the “exposure with increase in dose” value in data set [3] (interim cohort PK) is given as “Increased exposure with increase in dose”. Besides, the “inhibition of expression of AHR target gene CYP1B1” value against AHR is “Robust inhibition”. The noteworthy findings result in data set [4] is given as “emesis, loose stool, dehydration, body weight loss”.
